# Assay results published in patent publication US8338422B2, “Indolin-2-ones and aza-indolin-2-ones” (Janssen Pharmaceutica NV, priority 2007, dated 2012).
# Where “and” joins values, the source holds several entries; their conditions need not be identical. Equal values may be shown once.
# How the values were obtained:
# Assay type in all cases: biochemical
# GSK3β (h) = GSK3β (h) (Homo sapiens, UniProt P49841); test: GSK-3β human kinase assay (SPA); details: read-out: GSK3B pIC50 (converted)
# Method: (§1) The in vitro inhibition of a panel of kinases was assessed using either the scintillation proximity assay (SPA) as described by Cook, N. D. et al., Advances in Experimental Medicine and Biology (1991), 36; p. 525-528; or the Fluorescence Resonance Energy Transfer (FRET) technology as described by Rodems, S. M. et al., Assay Drug Develop. Technol. (2002), 1; p. 9-19.
# (§2) In the SPA technology the activity of the kinase of interest is measured using an appropriate biotinylated substrate that is incubated with the aforementioned kinase protein in the presence of (^33P) radiolabeled ATP. (^33P) Phosporylation of the substrate is subsequently measured through binding of the phosphorylated substrate to streptavidine coated beads that are based on the scintillant poly(vinyl toluene) (PVT-Beads). The scintillation intensity is detected by imaging on Leadseeker.
# (§3) All kinases are pre-diluted to a 10× working concentration prior to addition into the assay. The composition of the dilution buffer for each kinase is detailed below.
# In a final reaction volume of 30 μl, GSK3β (h) (1 μg/ml) is incubated with 25 mM Tris pH 7.4, 10 mM MgCl2, 1 mM DTT, 1 μM peptide Biotin-KRREILSRRPSYR-OH, 1 μM ATP and 2 nM [γ-^33P-ATP] (6.0 μCi/ml). After incubation of 60 minutes at room temperature, the reaction is stopped by addition of […] of stop solution containing 8.7 mM EDTA, BSA 0.17%, 0.17% Triton X-100, 6.25 mg/ml SPA beads (GE-healthcare). The plate is centriguged and read for Scintillation imaging on Leadseeker.
# AuroraB (h) = AuroraB (h) (Homo sapiens, UniProt Q96GD4); test: Aurora-B human kinase assay (SPA); details: for IC50: read-out: AuroraB pIC50 (converted)
# Method: as §1, §2, §3
# In a final reaction volume of 30 μl, AuroraB (h) (0.5 μg/ml) is incubated with 60 mM Hepes pH 7.5, 3 mM MgCl2, 3 mM MnCl2, 3 μM Na3VO4, 0.05 mg/ml PEG, 2 mM DTT, 3 μM Biotin-[…]-OH, 0.5 μM ATP and 2.2 nM [γ-^33P-ATP] (6.8 μCi/ml). After incubation of 60 minutes at room temperature, the reaction is stopped by addition of 40 μL of stop solution containing 8.7 mM EDTA, BSA 0.17%, 0.17% Triton X-100, 5 mg/ml SPA beads (GE-healthcare). The plate is centriguged and read for Scintillation imaging on Leadseeker.
# PLK4 (h) = PLK4 (h) (Homo sapiens, UniProt O00444); test: PLK-4 human kinase assay (SPA); details: for IC50: read-out: PLK4 pIC50 (converted)
# Method: as §1, §2, §3
# In a final reaction volume of 30 μl PLK4 (h) (19 μg/ml) is incubated with 50 mM Hepes pH 8.0, 10 mM MgCl2, 50 mM NaCl, 1 mM NaF, 1 mM DTT, 10 μM of peptide Biotin-RPRGQRDSSYYWE-OH, 1 μM ATP and 2 nM [γ-^33P-ATP] (6.0 μCi/ml). After incubation of 60 minutes at room temperature, the reaction is stopped by addition of 40 μl, of stop solution containing 8.7 mM EDTA, BSA 0.17%, 0.17% Triton X-100, 1.7 mg/ml SPA beads (GE-healthcare). The plate is centriguged and read for Scintillation imaging on Leadseeker.
# Chain of AuroraB (h) (Q96GD4 whole entry): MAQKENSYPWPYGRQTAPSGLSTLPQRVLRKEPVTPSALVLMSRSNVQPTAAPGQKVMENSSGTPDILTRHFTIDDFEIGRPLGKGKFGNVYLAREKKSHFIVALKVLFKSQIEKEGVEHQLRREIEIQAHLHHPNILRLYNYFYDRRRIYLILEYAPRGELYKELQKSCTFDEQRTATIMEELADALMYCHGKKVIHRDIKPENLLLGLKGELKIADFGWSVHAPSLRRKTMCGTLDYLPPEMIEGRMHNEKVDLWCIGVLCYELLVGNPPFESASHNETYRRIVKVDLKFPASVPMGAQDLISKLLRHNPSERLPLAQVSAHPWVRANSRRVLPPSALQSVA
# Chain of GSK3β (h) (P49841 whole entry): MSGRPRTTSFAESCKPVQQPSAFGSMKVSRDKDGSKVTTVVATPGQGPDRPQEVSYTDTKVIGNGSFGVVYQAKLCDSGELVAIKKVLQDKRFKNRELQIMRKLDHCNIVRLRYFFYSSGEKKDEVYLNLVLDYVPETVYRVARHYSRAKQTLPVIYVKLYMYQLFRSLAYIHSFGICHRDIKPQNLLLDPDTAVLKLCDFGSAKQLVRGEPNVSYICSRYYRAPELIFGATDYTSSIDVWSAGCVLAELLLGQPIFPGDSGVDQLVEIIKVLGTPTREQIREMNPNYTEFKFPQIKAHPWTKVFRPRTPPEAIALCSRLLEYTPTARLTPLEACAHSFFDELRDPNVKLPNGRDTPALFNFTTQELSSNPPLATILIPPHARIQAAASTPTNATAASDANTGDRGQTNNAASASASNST
# Chain of PLK4 (h) (O00444 whole entry): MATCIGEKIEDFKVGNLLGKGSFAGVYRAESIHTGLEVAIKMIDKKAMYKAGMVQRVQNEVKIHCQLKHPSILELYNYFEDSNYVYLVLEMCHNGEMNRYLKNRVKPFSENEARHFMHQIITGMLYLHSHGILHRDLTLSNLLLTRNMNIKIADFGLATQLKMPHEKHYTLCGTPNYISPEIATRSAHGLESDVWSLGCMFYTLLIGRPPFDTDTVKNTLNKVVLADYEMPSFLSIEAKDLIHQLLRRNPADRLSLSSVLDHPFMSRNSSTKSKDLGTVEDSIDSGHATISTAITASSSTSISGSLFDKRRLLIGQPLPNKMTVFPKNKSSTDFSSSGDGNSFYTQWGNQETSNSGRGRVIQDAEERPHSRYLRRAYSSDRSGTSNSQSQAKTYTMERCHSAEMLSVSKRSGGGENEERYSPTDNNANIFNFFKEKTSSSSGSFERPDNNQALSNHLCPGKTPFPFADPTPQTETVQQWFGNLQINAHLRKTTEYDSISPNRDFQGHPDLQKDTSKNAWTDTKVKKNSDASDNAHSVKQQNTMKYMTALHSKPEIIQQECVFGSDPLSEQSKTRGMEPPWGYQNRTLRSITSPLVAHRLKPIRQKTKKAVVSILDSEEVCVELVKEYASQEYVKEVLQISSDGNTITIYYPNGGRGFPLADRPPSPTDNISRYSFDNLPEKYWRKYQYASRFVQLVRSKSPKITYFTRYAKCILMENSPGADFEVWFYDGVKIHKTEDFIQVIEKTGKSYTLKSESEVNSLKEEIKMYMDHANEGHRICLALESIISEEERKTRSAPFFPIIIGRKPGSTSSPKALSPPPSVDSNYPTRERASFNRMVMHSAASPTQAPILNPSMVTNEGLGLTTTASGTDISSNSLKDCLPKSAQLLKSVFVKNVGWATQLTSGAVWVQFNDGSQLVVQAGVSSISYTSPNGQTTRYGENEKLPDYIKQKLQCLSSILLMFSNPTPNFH
SMILES,IC50 (GSK3β (h)),IC50 (AuroraB (h)),IC50 (PLK4 (h)),AuroraB pIC50 (AuroraB (h)),PLK4 pIC50 (PLK4 (h))
COCCN1CCCOc2cc(ccc2Cl)N/C=C2\C(=O)Nc3ncnc(c32)N2CCN(CC2)C(=O)C1 [Compound 180],3.47 µM and 5.37 µM,> 10 µM,> 10 µM,,
COCCN1CCCOc2cc(ccc2OC)N/C=C2\C(=O)Nc3ncnc(c32)NCCNC(=O)C1 [Compound 202],4.68 µM,3.98 µM,,,
COCCN1CCOc2cc(ccc2Cl)N/C=C2\C(=O)Nc3ncnc(c32)NCCCN(C)C(=O)C1 [Compound 205],0.0933 µM,> 10 µM,,,
CN1CCCNc2ncnc3c2/C(=C/Nc2ccc(Cl)c(c2)OCCN(C)[C@H](CO)C1=O)C(=O)N3 [Compound 177],0.0661 µM and 0.0457 µM,2.51 µM and 6.46 µM,4.37 µM and 7.24 µM,,
CN1CCNc2ncnc3c2/C(=C/Nc2cccc(c2)OCCN(C)[C@H](CO)C1=O)C(=O)N3 [Compound 164],0.759 µM,5.25 µM,3.63 µM,,
CN1CCCOc2cc(ccc2Cl)N/C=C2\C(=O)Nc3ncnc(c32)N2CCN(CC2)C(=O)[C@H]1CO [Compound 181],2.24 µM,> 10 µM,> 10 µM,,
CN1CCCNc2ncnc3c2/C(=C/Nc2cccc(c2)OCCN(C)[C@H](CO)C1=O)C(=O)N3 [Compound 103],,8.71 µM and 7.76 µM,1.86 µM and 4.17 µM,,
CN1CC(=O)NCC#Cc2cccc3c2/C(=C/Nc2cccc(c2)S1(=O)=O)C(=O)N3 [Compound 4],,> 10 µM,0.102 µM,,
COCCN1CCOc2cccc(c2)N/C=C2\C(=O)Nc3ncnc(c32)NCCCN(C)C(=O)C1 [Compound 163],0.0631 µM,6.46 µM,0.589 µM,,
COCCN1CCOc2cccc(c2)N/C=C2\C(=O)Nc3ncnc(c32)NCCN(C)C(=O)C1 [Compound 161],0.832 µM,7.41 µM,5.13 µM,,
O=C1Nc2ncnc3c2C1=CNc1cc(ccc1Cl)OCCCCCC(=O)N1CCN3CC1 (mixture of isomers) [Compound 19],,,,<5,<5
COCCN1CCCOc2cc(ccc2Cl)N/C=C2\C(=O)Nc3ncnc(c32)NCCN(C)C(=O)C1 [Compound 174],1.62 µM and 1.86 µM,> 10 µM,> 10 µM,,
COc1ccc2cc1OCCCCCCC(=O)N(C)CCCN(C)c1ncnc3c1/C(=C/N2)C(=O)N3 [Compound 85],1.1 µM,> 10 µM,5.01 µM,,
COc1ccc2cc1OCCCN(C)[C@H](CO)C(=O)N1CCN(CC1)c1ncnc3c1/C(=C/N2)C(=O)N3 [Compound 204],1.35 µM,> 10 µM,,,
CN1CCC(=O)N(C)CCNc2ncnc3c2/C(=C/Nc2ccc(Cl)c(c2)OCC(O)C1)C(=O)N3 (stereo not drawn) [Compound 104],1.1 µM,3.39 µM,,,

# More lines, main results first:
IC50 (GSK3β (h)),IC50 (AuroraB (h)),IC50 (PLK4 (h)),SMILES,AuroraB pIC50 (AuroraB (h)),PLK4 pIC50 (PLK4 (h))
0.457 µM,> 10 µM,3.16 µM,O=C1COc2cccc(c2)N/C=C2\C(=O)Nc3ncnc(c32)N2CCN(CC2)C[C@@H](Cc2ccccc2)N1 [Compound 101],,
1.02 µM,> 10 µM,2.19 µM,CN1CCNc2ncnc3c2/C(=C/Nc2cccc(c2)OCCN2C[C@H](O)C[C@@H]2C1=O)C(=O)N3 [Compound 166],,
,,3.09 µM,CN1CCCC(=O)N2CCN(CC2)c2ncnc3c2C(=CNc2cccc(c2)C1)C(=O)N3 (mixture of isomers) [Compound 11],,
1.58 µM and 1.35 µM,> 10 µM,> 10 µM,O=C1Nc2ncnc3c2/C1=C/Nc1cccc(c1)OCCCN1C[C@H](O)C[C@@H]1C(=O)N1CCN3CC1 [Compound 175],,
,,> 10 µM,O=C1Nc2ncnc3c2C1=CNc1ccc(Cl)c(c1)OCCCCC(=O)N1CCN3CC1 (mixture of isomers) [Compound 12],,
0.575 µM,> 10 µM,4.27 µM,CN1CCNc2ncnc3c2/C(=C/Nc2cccc(c2)OCCCN(C)[C@H](CO)C1=O)C(=O)N3 [Compound 173],,
1.51 µM,> 10 µM,,O=C1Nc2ncnc3c2/C1=C/Nc1ccc(Cl)c(c1)OCCN1C[C@H](O)C[C@@H]1C(=O)N1CCN3CC1 [Compound 196],,
